# Laboratory results from patent publication US11156599B2, “Assay for telomere length regulators” (The Johns Hopkins University, priority 2015, dated 2021).
# Experiments:
# human HCT116 cells = assay: Telomere length in continuously growing HCT116 cells; type: cell-based; details: KU55933
# SL13 cells = assay: Telomere Southern blot after telomerase (mTR and mTERT) overexpression; type: cell-based, mouse; details: lentivirus expressing mTR and mTERT, 2 or 5 days in culture
# Method: To examine the role of ATM in telomere elongation by an independent method, telomerase was overexpressed in the cell line, in the presence of ATM inhibition. It has been shown that overexpressing telomerase elongates telomere lengths in human cells. Cells were treated with KU55933 and then transduced with a lentivirus expressing both mTR and mTERT and grown for 2 or 5 days in culture and telomere lengths were assayed by Southern blot. Telomere lengths in cells overexpressing telomerase were rapidly elongated in just 5 days (data not shown). […] In addition, as discussed below, when cells are grown for several days, ATR may also compensate for the loss of ATM. […]
# To measure telomere lengths by Southern blot, genomic DNA was extracted from cell pellets collected at different population doublings using the Puregene Core Kit A™ (Qiagen). […] Labeled probe was counted and 10^6 counts/ml (telomere probe) or 10^4 counts/ml (ladder) was denatured at 100° C. for 5 minutes and added to the pre-hybridization solution and hybridized overnight at 65° C. Membranes were washed 3× 15 minutes each in 6× SSC and 1% SDS at 65° C., and 3× 15 minutes each in 1× SSC and 1% SDS at 65° C. and exposed to a phosphorimager screen and detected on a Fuji phosphorimager. […]
# [1] = system: ATM kinase-dependent signaling pathway (Kap1-S824 phosphorylation); assay: Western blot of phosphorylated Kap1 (ATM substrate); type: cell-based, mouse
# Source text: Having established the robust ADDIT assay that can measure telomere elongation over one cell cycle, it was desired to examine whether the ATM kinase activity is required for telomere elongation. Two different methods were used to inhibit ATM: the ATM specific inhibitor KU55933 and siRNA knockdown. To confirm the inhibition of ATM kinase activity, the phosphorylation level of ATM substrate Kap1 as well as ATR kinase substrate Chk1 was examined by western blot. Cultured cells were pretreated with KU55933, siATM or DMSO control and later exposed to a DNA damaging reagent Camptothecin (CPT).
# To detect phospho-proteins, 1× lysis buffer made of final concentration of 1× RIPA (Cell Signaling, #98016S), 1× protease inhibitor cocktail, 1× PhosSTOP™ (Roche, #4906845001) was added directly to cells on the dish after washing with cold 1× PBS. Protein concentration was measured with a BCA protein assay kit (Thermo, #23227). Typically 10 μg of protein from each sample was applied to SDS-PAGE gels, 4-15% Mini-PROTEAN TGX™ gels (Biorad, #456-1084), and transferred to nitrocellulose membranes in transfer buffer. […] Band intensities were quantified using the Odyssey™ software (LI-COR) and normalized to Actin levels. […]
Compound,telomere lengths with increasing cell PDs (human HCT116 cells),telomere elongation by telomerase overexpression (SL13 cells),"Kap1-S824 phosphorylation ([1]; pretreated, later exposed to Camptothecin (CPT), western blot)",increased level of Kap1 phosphorylation compared to DMSO-treated control cells ([1]; Olaparib treated cells) [fold]
O=c1cc(-c2cccc3c2Sc2ccccc2S3)oc(N2CCOCC2)c1 [KU55933],shortened significantly,significantly blocked the telomere elongation,blocked Kap1 phosphorylation,
O=C(c1cc(Cc2n[nH]c(=O)c3ccccc23)ccc1F)N1CCN(C(=O)C2CC2)CC1 [Olaparib],,,,5
